Measured values published in ChEMBL document CHEMBL1150097, “Majapolene A, a cytotoxic peroxide, and related sesquiterpenes from the red alga Laurencia majuscula” (1995).

Assay: Cytotoxicity against human NCI60 cells
Type: functional

CC1(C)CC(C23C=CC(CO)(CC2)OO3)CCC1Br (mixture of isomers) [MAJAPOLENE A] showed a GI50 of 400 nM, a TGI of 900 nM and a CC50 (read-out: LC50 (the source's name)) of 2800 nM.
